# Assay results reported in patent US11229634B2, “Methods for treating gastrointestinal disorders using FXR agonists” (Novartis AG, priority 2016, dated 2022).
# Entries after “also recorded” stand apart in the source; their conditions may differ.
# What was measured:
# [1] = Multiple oral dose plasma pharmacokinetics in healthy subjects; assay type: in vivo; conditions: human
# ANIT-induced cholestasis [2] = experiment: Chronic treatment rat ANIT model of cholestasis, serum markers; assay type: in vivo; conditions: oral dosing 0.01 to 3 mg/kg
# Method: Rats were treated with alpha-naphthyl-isothiocyanate (ANIT) (0.1% w/w) in food for 3 days prior to treatment with the compound at the indicated doses or with vehicle control (“Veh”). A non-cholestatic control group was fed standard chow diet without ANIT, and serve as the non-cholestatic control animals (“Control”), After […] days of oral dosing, the indicated analyte was measured in serum. LLQ, lower limit of quantitation. Mean±SEM; n=5.
# [3] = Single oral dose plasma pharmacokinetics in healthy subjects; assay type: in vivo; conditions: dose range 10 μg to 3000 μg, human
# FGF19 = conditions: single and repeated dosing, human
# [4] = Estimation of human efficacious dose from rat efficacious exposure and human PK; conditions: human, plasma, oral, 6 μg; estimated, molar
# Method: The human efficacy dose was calculated based on the efficacious exposure in the rat ANIT-induced disease model. Since the in vitro potency and protein binding between human and rat were similar, the EC80 exposure in human was assumed to be the same as that in rat (3.05 ng*h/mL),
# ANIT-induced cholestasis [5] = experiment: PK/PD modeling of effective exposure in rat ANIT chronic treatment model; assay type: in vivo; conditions: drug concentration producing 80% of maximum effect
# Method: Male Wistar rats were treated with ANIT (0.1% ANIT in chow diet) for 2 weeks. […] The serum samples were collected on day 14 for analysis of biomarkers of hepatobiliary injury (including ALT, AST, bilirubin and bile acids). The PK samples (pre-dose, 0.5, 1, 3, 7, 10 and 24 h, n=3/dose group) were taken on day 13 (at steady-state). AUC0-24 h was determined using Phoenix WinNonlin 6.3 software and the average concentrations were calculated from mean of AUC0-24 h at each dose (divided the AUC0-24 h by 24 h). The mean biomarker data were compared to the PK data (average concentration at each dose) for the modeling. The IC80 was determined using the Inhibitory effect Imax model (effect C=0 at Imax, C=infinity at E0) built in Phoenix WinNonlin 6.3 software. […] Therefore, we chose to use a mean of the IC80 for the four biomarkers (total bilirubin, total bile acids, ALT and AST) as the IC80 for efficacy in this model. […]
# The PK samples (pre-dose, 0.5, 1, 3, 7, 10 and 24 h, n=3/dose group) were taken on day 13 (at steady-state). AUC0-24 h was determined using Phoenix WinNonlin 6.3 software and the average concentrations were calculated from mean of AUC0-24 h at each dose (divided the AUC0-24 h by 24 h). […] The IC80 was determined using the Inhibitory effect Imax model (effect C=0 at Imax, C=infinity at E0) built in Phoenix WinNonlin 6.3 software.
# [6] = Food effect (high-fat meal vs fasted) on pharmacokinetics; assay type: in vivo; conditions: human
# Method: To avoid variability in drug exposure, it is recommended that throughout the treatment period, patients will be directed to take study drug at home with ˜240 mL (8 ounces) of water in the morning in a fasting state, at least 30 min prior to the first beverage apart from water and 60 min prior to first meal of the day, preferably at the same time of the day.
# [7] = Safety and tolerability in healthy subjects; assay type: in vivo, human; conditions: repeated daily 100 μg; one ALT>ULN, one ALT>3×ULN, one ALT>5×ULN
# FXR = target: T1, FXR (Homo sapiens, UniProt Q96RI1); conditions: clinical studies in PBC or NASH subjects; cited from earlier work
# T1 construct: OCA was tested at doses between 5 mg and 50 mg in PBC subjects or NASH subjects; host or cells: human subjects (PBC, NASH), endogenous receptor
# T1 sequence (Q96RI1 1-486): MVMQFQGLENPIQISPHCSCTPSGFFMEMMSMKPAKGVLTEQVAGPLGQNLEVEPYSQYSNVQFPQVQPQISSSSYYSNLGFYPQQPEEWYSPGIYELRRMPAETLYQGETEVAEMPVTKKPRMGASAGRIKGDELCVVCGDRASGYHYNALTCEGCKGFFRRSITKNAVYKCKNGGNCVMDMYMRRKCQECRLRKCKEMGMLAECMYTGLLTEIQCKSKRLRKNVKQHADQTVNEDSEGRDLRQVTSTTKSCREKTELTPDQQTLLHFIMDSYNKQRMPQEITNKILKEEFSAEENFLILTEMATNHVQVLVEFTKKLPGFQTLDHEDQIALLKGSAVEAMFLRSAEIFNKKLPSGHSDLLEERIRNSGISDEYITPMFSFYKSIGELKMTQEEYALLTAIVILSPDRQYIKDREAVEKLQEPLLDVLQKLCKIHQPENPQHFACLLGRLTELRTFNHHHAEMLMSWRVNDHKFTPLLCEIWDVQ
Structure (SMILES),"dose dependence of Cmax and AUC (AUCtau/AUCinf), plasma exposure ([1]; multiple once daily doses, dose range 10 μg to 100 μg)","day by which steady-state was reached ([1]; once daily oral dosing 10-100 μg, trough levels)","dose from which hepatobiliary injury indicators (AST, ALT, bilirubin, bile acids) improved (ANIT-induced cholestasis [2])",dose dependence of mean Cmax and AUCinf [3],FGF19 response to dose (FGF19),Cmax [4],"IC80, total bilirubin (ANIT-induced cholestasis [5])","median Tmax, fasted state ([6]; fasted comparator of food effect)",increase of mean AUCinf with high-fat meal compared to the fasted state [6],increase of mean Cmax with high-fat meal compared to the fasted state [6],subjects with elevation of transaminases (ALT and AST) [7],side effect associated with treatment (FXR)
"O=C(O)c1cc(F)c2nc(N3C4CC[C@H]3CC(OCc3c(-c5ccccc5OC(F)(F)F)noc3C3CC3)C4)sc2c1 (stereo partly drawn) [Compound A, 2-[(1R,3r,5S)-3-({5-cyclopropyl-3-[2-(trifluoromethoxy)phenyl]-1,2-oxazol-4-yl}methoxy)-8-azabicyclo[3.2.1]octan-8-yl]-4-fluoro-1,3-benzothiazole-S-carboxylic acid]",approximately dose-proportional increase; also recorded: approximately dose proportional increase,≤ 4 days,0.01 mg/kg,approximately dose proportional increase,dose-dependent increases in FGF19,~0.3 nM,0.223 ng/mL,4 h,approximately 60%,approximately 60%,3 subjects,–
"CC[C@H]1[C@@H](O)[C@@H]2[C@H](CC[C@]3(C)[C@@H]([C@H](C)CCC(=O)O)CC[C@@H]23)[C@@]2(C)CC[C@@H](O)C[C@@H]12 [OCA, 6α-ethyl-chenodeoxycholic acid]",–,–,–,–,–,–,–,–,–,–,–,increased pruritus
